One assay has as its target sigma receptor (Cavia porcellus, UniProt Q60492). The experiment in a line: biochemical. To be noted: 1 nM (+)-[3H]SKF 10,047, guinea pig brain membranes, pH 7.4, 45 min, room temperature; read-out: SIGMA receptor binding Ki. How it is done:
(§1) Male Hartley guinea pigs (250-300 g, Charles River) were sacrificed by decapitation. […] Whole brains were homogenized (20 seconds) in 10 vol (wt/vol) of ice-cold 0.34 M sucrose with a Brinkmann Polytron (setting 8). The homogenate was centrifuged at 920 × g for 10 minutes. The supernatant was centrifuged at 47,000 × g for 20 minutes. The resulting membrane pellet was resuspended in 10 vol (original wt/vol) of 50 mM Tris HCl (pH 7.4) and incubated at 37° C. for 45 minutes to degrade and dissociate bound endogenous ligands. The membranes were then centrifuged at 47,000 × g for 20 minutes and resuspended in 50 mM Tris HCl (50 mL per brain).
After 45 minutes of incubation at room temperature, samples were filtered rapidly through Whatman GF/C. glass filters under negative pressure, and washed 3 times with ice-cold Tris buffer (5 mL).
IC50 s were calculated from log-logit plots. Apparent Ki s were calculated from the equation, Ki = IC50 /[1+(L/Kd)] (4), where L is the concentration of radio ligand and Kd is its dissociation constant.

The target of a further assay is T1, dopamine D-2 receptor (Cavia porcellus, UniProt H0VE83).
T1 construct: Membranes were prepared from guinea pig striatum; from tissue; host or cells: guinea pig striatum membranes
T1 sequence (H0VE83 1-446): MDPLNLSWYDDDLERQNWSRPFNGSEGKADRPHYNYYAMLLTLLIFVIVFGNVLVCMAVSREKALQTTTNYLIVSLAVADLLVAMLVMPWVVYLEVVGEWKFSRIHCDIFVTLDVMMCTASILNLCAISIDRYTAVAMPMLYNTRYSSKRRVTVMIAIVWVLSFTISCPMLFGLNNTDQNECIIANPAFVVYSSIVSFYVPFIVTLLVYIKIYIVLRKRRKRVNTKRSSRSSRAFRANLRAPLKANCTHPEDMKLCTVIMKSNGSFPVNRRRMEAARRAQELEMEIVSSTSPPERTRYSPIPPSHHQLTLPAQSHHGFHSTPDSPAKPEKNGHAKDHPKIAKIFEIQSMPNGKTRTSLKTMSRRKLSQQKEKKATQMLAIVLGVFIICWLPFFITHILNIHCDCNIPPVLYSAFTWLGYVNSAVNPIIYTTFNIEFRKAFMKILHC
Put plainly: Dopamine Receptor Binding ([3H]spiperone, striatum membranes). More on the design: species or system guinea pig. How it is done: as §1
Membranes were prepared from guinea pig striatum by the method described for sigma receptor binding. The membranes were then resuspended in 50 mM Tris HCl (9 mL per brain).
Nonspecific binding was measured in the presence of 100 nM (+)-butaclamol.After 15 minutes of incubation at 37° C., samples were filtered rapidly through Whatman GF/C glass filters under negative pressure, and washed three times with ice-cold binding buffer (5 mL).
IC50 s were calculated from log-logit plots.

A short description of assay [1]: Isolation-Induced Aggression in Mice. The assay is classed as in vivo, Male Balb/c mice. To be noted: oral; for ED50: Mus musculus, 0.25 h, 15 min after dosing, isolated male Balb/c mice, read-out: Inhibition of Isolation-induced Aggression ED50; for inhibiting isolation-induced aggressive behavior (in words): mice, summary of Table 5. The protocol: Male Balb/c mice (Charles River) were used. […] Isolated mice failing to consistently attack an intruder were eliminated from the colony. Drug testing was carried out by treating the isolated mice with test drugs or standards. Fifteen minutes after dosing with test drugs by the oral route, one isolated mouse was removed from its home cage and placed in the home cage of another isolate. Scoring was a yes or no response for each pair. A maximum of 3 minutes was allowed for an attack and the pair was separated immediately upon an attack. Selection of home cage and intruder mice was randomized for each test. Mice were treated and tested twice a week with at least a 2 day washout period between treatments.

Setting [2] is: 0.15 nM [3H]spiperone, guinea pig striatum membranes, pH 7.7, 15 min, 37° C., read-out: DOPAMINE D-2 receptor binding Ki.

As a reminder, the Ki is a measure of affinity in units of concentration, obtained from inhibition or displacement. As usually defined, the ED50 is the midpoint of the dose-response relation.

Where a name gives a salt, the structure may show the parent alone. Read-outs that look alike come from different tables or passages of the source.

sigma receptor, sequence (Q60492 whole entry): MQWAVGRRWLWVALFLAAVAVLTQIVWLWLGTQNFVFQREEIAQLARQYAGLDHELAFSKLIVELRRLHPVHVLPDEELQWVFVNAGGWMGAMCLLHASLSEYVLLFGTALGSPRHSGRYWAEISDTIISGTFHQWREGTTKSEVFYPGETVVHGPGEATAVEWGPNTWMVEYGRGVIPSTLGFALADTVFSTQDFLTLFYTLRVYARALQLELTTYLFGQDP

For `C(#Cc1ccccc1)COCCC1CCN(CCc2ccccc2)CC1` [Example 39, 1-Phenethyl-4-(3-phenyl-2-propynyloxy)ethyl] piperidine, hydrochloride salt], the Ki on sigma receptor was in the range of 1 to 30 nM; on dopamine D-2 receptor (setting [2]), 101 to 500 nM.
On the same counts, the results for `C(=C\c1ccccc1)/COCC1CCN(Cc2cccc3ccccc23)CC1` [Example 33] are 31 to 100 nM and over 500 nM.
On to `FC(F)(F)c1ccc(/C=C/COCC2CCN(Cc3ccccc3)CC2)cc1` [Example 35, (E)-1-benzyl-4-{[3-(4-trifluoromethyl)phenyl-2-propenyloxy]methyl}piperidine, maleic acid salt], for which the figures for the Ki at sigma receptor and at dopamine D-2 receptor (setting [2]) were 1 to 30 nM and over 500 nM, respectively.
For `C(=C\c1ccccc1)/COC1CCN(Cc2ccccc2)C1` (centres unmarked) [Example 32], the Ki at sigma receptor was 1 to 30 nM; at dopamine D-2 receptor (setting [2]), over 500 nM.
Taken in the same sequence, the figures for `C(#Cc1ccccc1)COCCC1CCN(Cc2ccccc2)CC1` [Example 40] were 1 to 30 nM and over 500 nM.
Consider `O=C(CCCN1CCC(O)(c2ccc(Cl)cc2)CC1)c1ccc(F)cc1` [Haloperidol, reference compound], for which, in assay [1], the ED50 is under 10 mg/kg and the “inhibiting isolation-induced aggressive behavior (in words)” value is “effective”.
With `C(=C\c1ccccc1)/COCC1CCN(CCCc2ccccc2)CC1` [Example 30, (E)-1-(3-phenyl)propyl-4-[(3-phenyl-2-propenyloxy)methyl]piperidine, hydrochloride salt], the results for the Ki at sigma receptor and on dopamine D-2 receptor (setting [2]) were 1 to 30 nM and over 500 nM, respectively.
With `C(=C\c1ccccc1)/COCCC1CCCCN1Cc1ccccc1` (centres unmarked) [Example 24], the Ki on sigma receptor is 1 to 30 nM; at dopamine D-2 receptor (setting [2]) it was over 500 nM.
Turning to `C(=C/c1ccccc1)/COCCC1CCN(Cc2ccccc2)CC1` [Example 42, (Z)-1-Benzyl-4[(3-phenyl-2-propenyloxy)ethyl]piperidine], the Ki on sigma receptor is 31 to 100 nM; at dopamine D-2 receptor (setting [2]) it was over 500 nM.
In the case of `C(=C\c1ccccc1)/COCCC1CCN(Cc2ccccc2)CC1` [Example 41, (E)-1Benzyl-4-[(3-phenyl-2-propenyloxy)lethyl]piperidine, maleic acid salt], the Ki on sigma receptor is 1 to 30 nM; at dopamine D-2 receptor (setting [2]), over 500 nM.
For the compound `C(=C\c1ccccc1)/COC[C@H]1CCCN1Cc1ccccc1` [Example 37], the Ki on sigma receptor was 1 to 30 nM; on dopamine D-2 receptor (setting [2]) it was over 500 nM.
With `C(=C\c1ccccc1)/COCC1CCCCN1Cc1ccccc1` (centres unmarked) [Example 28], the values for the Ki on sigma receptor and on dopamine D-2 receptor (setting [2]) were 1 to 30 nM and over 500 nM, respectively.
With `CCCCCCN1CCC(COC/C=C/c2ccccc2)CC1` [Example 36], the values for the Ki on sigma receptor and on dopamine D-2 receptor (setting [2]) were 1 to 30 nM and over 500 nM, respectively.
`C(=C\c1ccccc1)/COCC1CCN(Cc2ccccc2)CC1.Cl` [Example 21, (E)-1-Benzyl-4-[(3-phenyl-2-propenyloxy)methyl]piperidine hydrochloride]: on sigma receptor, the Ki was in the range of 1 to 30 nM. Also, in assay [1], the ED50 was 21 to 70 mg/kg and the “inhibiting isolation-induced aggressive behavior (in words)” value is listed as “effective”. Also, the Ki on dopamine D-2 receptor (setting [2]) was over 500 nM.
On to `C(=C\c1ccccc1)/COCC1CCN(CC2CC2)CC1` [Example 23], for which the Ki is 1 to 30 nM at sigma receptor and over 500 nM on dopamine D-2 receptor (setting [2]).
Taken in the same sequence, the figures for `C(=C\c1ccccc1)/COCC1CCCN(Cc2ccccc2)C1` (centres unmarked) [Example 27] were 1 to 30 nM and over 500 nM.
Regarding `CC(C)=CCN1CCC(COC/C=C/c2ccccc2)CC1` [Example 29], the Ki is 1 to 30 nM at sigma receptor and over 500 nM at dopamine D-2 receptor (setting [2]).
Turning to `C(=C\c1ccccc1)/COCC1CCN(CCc2ccccc2)CC1` [Example 25, (E)-1-phenethyl-4-[(3-phenyl-2-propenyloxy)methyl] piperidine, hydrochloride salt], the Ki at sigma receptor lay in the range of 1 to 30 nM. Besides, in assay [1], the ED50 was in the range of 21 to 70 mg/kg and the “inhibiting isolation-induced aggressive behavior (in words)” value is “effective”. The Ki at dopamine D-2 receptor (setting [2]) was in the range of 101 to 500 nM.
As for `C(COCC1CCN(Cc2ccccc2)CC1)=C(c1ccccc1)c1ccccc1` [Example 34], the Ki was 1 to 30 nM at sigma receptor and over 500 nM at dopamine D-2 receptor.
Regarding `C(=C\c1ccccc1)/COC[C@@H]1CCCN1Cc1ccccc1` [Example 38], the Ki at sigma receptor was 1 to 30 nM; at dopamine D-2 receptor (setting [2]), over 500 nM.
Taken in the same sequence, the figures for `Fc1ccc(/C=C/COCC2CCN(Cc3ccccc3)CC2)cc1` [Example 22, (E)-1-benzyl-4-{[3-(4-fluoro)phenyl-2-propenyloxy]methyl} piperidine, hydrochloride salt] were 1 to 30 nM and over 500 nM.
As to `C(=C\c1ccccc1)/COCC1CCN(Cc2ccc3ccccc3c2)CC1` [Example 26], the Ki was 1 to 30 nM on sigma receptor and over 500 nM on dopamine D-2 receptor (setting [2]).
On the same counts, the results for `C(=C\c1ccccc1)/COC1CCN(Cc2ccccc2)CC1` [Example 31] are 1 to 30 nM and over 500 nM.

The values above are taken from US5317024A, “Ether derivatives of alkyl piperidines and pyrrolidines as antipsychotic agents” (DuPont Merck Pharmaceutical Co., priority 1993, dated 1994).
